# No end group written: not given here.
# Tests used:
# [1] = test system: patients with ischemic heart disease; experiment: Treatment of patients with ischemic heart disease and high blood pressure; assay type: in vivo, human; conditions: six patients, 1 mg every 12 hours intravenously for seven days
# Method: It is exemplified with the results of six patients. They presented ischemic heart disease, associated with high blood pressure, which produced a state of severity. They were treated in the Intermediate Care Unit (IMCU) of the “Luis Diaz Soto” hospital in Havana. These patients were treated with a pharmaceutical composition comprising the peptide identified as SEQ ID NO: 1, so that a peptide dose of 1 mg every 12 hours was administered intravenously for seven days. In addition, they received the standard therapy needed for these cases.
# [2] = test system: patients with type II diabetes; experiment: Treatment of patients with decompensated type II diabetes; assay type: in vivo, human; conditions: five patients, 1 mg every 12 hours intravenously for eight days
# Method: It is exemplified with ten patients who had diabetic decompensation and reached a state of severity, that let them to be treated in the ICU of the hospital “Luis Díaz Soto” in Havana. Five of these patients were treated with a pharmaceutical composition comprising the peptide identified as SEQ ID NO: 1, so that a peptide dose of 1 mg every 12 hours was administered intravenously for eight days. In addition, they received the standard therapy needed for these cases.
# patients with RA = conditions: cited from earlier work
sequence,measurement,setting,value
SIDLKDKYKNIGAKLVQLVANNTNEEA [SEQ ID NO: 1],"side effects (clinical and imaging evaluation, blood biochemistry, differential blood count)",[1],No side effects were observed
same,"side effects (clinical and imaging evaluation, blood biochemistry, differential blood count)",[2],No side effects were observed
same,safety,patients with RA,proved to be safe

# — patent publication US20260226114A1, “PEPTIDE FOR THE TREATMENT OF DISEASES ASSOCIATED WITH APOLIPOPROTEIN AI OR TRANSTHYRETIN INVOLVEMENT” (CENTRO DE INGENIERÍA GENÉTICA Y BIOTECNOLOGÍA, priority 2022, published 2026)
